In ChEMBL document CHEMBL1157923, “Probing the cannabinoid CB1/CB2 receptor subtype selectivity limits of 1,2-diarylimidazole-4-carboxamides by fine-tuning their 5-substitution pattern” (Bioorg Med Chem Lett, 2010):

What was measured:
Cannabinoid receptor 2 = Cannabinoid receptor 2 (Homo sapiens, UniProt P34972); test: Displacement of [3H]CP-55940 from human CB2 receptor expressed in CHO cells; format: cell-based
Cannabinoid receptor 1 = Cannabinoid receptor 1 (Homo sapiens, UniProt P21554); test: biochemical; format: cell-based, CHO
Homo sapiens = organism: Homo sapiens; test: Selectivity ratio Ki for human CB2 receptor to Ki for human CB1 receptor
Rattus norvegicus = test: Inhibition of CP-55940-induced hypotension in po dosed anaesthetized rat; format: functional; conditions: read-out: ID50 (the source's name)
[1] = Lipophilicity log P of compound at pH 7.4 by RP-HPLC analysis; format: physicochemical; conditions: buffer
LLC-PK1 = test: Efflux ratio of permeability in pig LLC-PK1 cells expressing human MDR1 assessed as ratio of bottom to top transport over top to bottom transport; format: ADME, cell-based, Sus scrofa
[2] = Terminal half life in non obese human; format: ADME, organism-based; conditions: in vivo, read-out: beta t1/2 (converted)

Sequence of Cannabinoid receptor 2 (P34972 whole entry): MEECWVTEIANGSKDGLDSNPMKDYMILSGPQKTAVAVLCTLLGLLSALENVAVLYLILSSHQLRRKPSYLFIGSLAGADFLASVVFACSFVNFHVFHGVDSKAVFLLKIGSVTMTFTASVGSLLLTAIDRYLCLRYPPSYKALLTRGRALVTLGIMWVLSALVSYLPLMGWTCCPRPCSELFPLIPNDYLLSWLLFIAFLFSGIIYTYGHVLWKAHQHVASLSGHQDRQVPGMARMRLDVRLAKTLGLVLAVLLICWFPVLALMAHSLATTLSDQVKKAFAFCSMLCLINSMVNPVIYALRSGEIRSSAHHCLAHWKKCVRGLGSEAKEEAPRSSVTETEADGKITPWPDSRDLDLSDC
Sequence of Cannabinoid receptor 1 (P21554 whole entry): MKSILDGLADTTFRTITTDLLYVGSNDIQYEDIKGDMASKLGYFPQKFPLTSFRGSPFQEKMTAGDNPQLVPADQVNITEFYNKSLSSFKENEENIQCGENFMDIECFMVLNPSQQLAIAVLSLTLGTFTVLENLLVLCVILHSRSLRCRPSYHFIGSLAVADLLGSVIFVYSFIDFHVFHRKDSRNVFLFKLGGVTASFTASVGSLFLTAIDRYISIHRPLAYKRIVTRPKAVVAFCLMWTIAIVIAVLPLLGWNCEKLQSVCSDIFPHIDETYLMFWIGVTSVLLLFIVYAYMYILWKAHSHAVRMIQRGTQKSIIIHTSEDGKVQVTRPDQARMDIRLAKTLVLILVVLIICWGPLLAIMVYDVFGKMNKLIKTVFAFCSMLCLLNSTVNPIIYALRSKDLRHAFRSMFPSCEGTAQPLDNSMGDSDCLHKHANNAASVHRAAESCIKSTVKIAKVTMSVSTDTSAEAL

SMILES | Ki (Cannabinoid receptor 2) [nM] | Ki (Cannabinoid receptor 1) [nM] | Ratio IC50 (Homo sapiens) | further results
CSc1c(C(=O)NN2CCCCCC2)nc(-c2ccc(Cl)cc2Cl)n1-c1ccc(Cl)cc1 | 325 | 12 | 27 | –
CSc1c(C(=O)NN2CCCCC2)nc(-c2ccc(Cl)cc2Cl)n1-c1ccc(Cl)cc1 | 1070 | 12.2 | 88 | ED50 (Rattus norvegicus): 1.9 mg/kg; logP [1]: 4.8; Ratio (LLC-PK1): 1.4
CSc1c(C(=O)NN2CCCCCC2)nn(-c2ccc(Cl)cc2Cl)c1-c1ccc(Cl)cc1 | 371 | 27 | 14 | –
CCSc1c(C(=O)NN2CCCCC2)nc(-c2ccc(Cl)cc2Cl)n1-c1ccc(Cl)cc1 | > 1000 | 51 | > 19 | –
O=C(NN1CCCCC1)c1nc(-c2ccc(Cl)cc2Cl)n(-c2ccc(Cl)cc2)c1I | 1810 | 10 | 181 | –
O=C(NN1CCCCC1)c1nc(-c2ccc(Cl)cc2Cl)n(-c2ccc(Cl)cc2)c1CO | 7500 | 34 | 221 | –
C[S+]([O-])c1c(C(=O)NN2CCCCC2)nc(-c2ccc(Cl)cc2Cl)n1-c1ccc(Cl)cc1 (single isomer, unassigned; (-)) [listing 1 of 2 here] | > 1000 | 20 | – | –
CSc1c(C(=O)NN2CCCC2)nc(-c2ccc(Cl)cc2Cl)n1-c1ccc(Cl)cc1 | – | 8.9 | > 112 | –
N#Cc1c(C(=O)NN2CCCCC2)nc(-c2ccc(Cl)cc2Cl)n1-c1ccc(Cl)cc1 | – | – | 53 | –
Cc1c(C(=O)NN2CCCCC2)nn(-c2ccc(Cl)cc2Cl)c1-c1ccc(Cl)cc1 [RIMONABANT] | – | – | – | half-life [2]: 144 h
C[S+]([O-])c1c(C(=O)NN2CCCCC2)nc(-c2ccc(Cl)cc2Cl)n1-c1ccc(Cl)cc1 (single isomer, unassigned; (-)) [listing 2 of 2 here] | – | – | > 50 | –
C[S+]([O-])c1c(C(=O)NN2CCCCC2)nc(-c2ccc(Cl)cc2Cl)n1-c1ccc(Cl)cc1 (stereo in doubt; 12) [listing 1 of 2 here] | – | 49 | – | Ki (Cannabinoid receptor 2; cho): > 1000 nM; ED50 (Rattus norvegicus): > 30 mg/kg; logP [1]: 3.7; Ratio (LLC-PK1): 7.7
CSc1c(C(=O)NN2CCCC2)nn(-c2ccc(Cl)cc2Cl)c1-c1ccc(Cl)cc1 | 634 | 3 | 211 | ED50 (Rattus norvegicus): 1.9 mg/kg; logP [1]: 4.7
CSc1c(C(=O)NN2CCCCC2)nn(-c2ccc(Cl)cc2Cl)c1-c1ccc(Cl)cc1 | 804 | 13 | – | ED50 (Rattus norvegicus): 1.5 mg/kg
C[S+]([O-])c1c(C(=O)NN2CCCCC2)nc(-c2ccc(Cl)cc2Cl)n1-c1ccc(Cl)cc1 (single isomer, unassigned; (+)) [listing 1 of 2 here] | – | – | > 77 | –
CS(=O)(=O)c1c(C(=O)NN2CCCCC2)nc(-c2ccc(Cl)cc2Cl)n1-c1ccc(Cl)cc1 | > 10000 | – | > 840 | ED50 (Rattus norvegicus): 29 mg/kg; logP [1]: 3.5; Ratio (LLC-PK1): 6
Cc1c(C(=O)NN2CCCCC2)nc(-c2ccc(Cl)cc2Cl)n1-c1ccc(Cl)cc1 | – | – | 20 | –
C[S+]([O-])c1c(C(=O)NN2CCCCC2)nn(-c2ccc(Cl)cc2Cl)c1-c1ccc(Cl)cc1 (stereo not drawn) | 398 | 20 | 20 | ED50 (Rattus norvegicus): > 30 mg/kg; logP [1]: 3.7; Ratio (LLC-PK1): 8
C[S+]([O-])c1c(C(=O)NN2CCCCC2)nc(-c2ccc(Cl)cc2Cl)n1-c1ccc(Cl)cc1 (stereo in doubt; 12) [listing 2 of 2 here] | – | – | > 20 | –
C[S+]([O-])c1c(C(=O)NN2CCCCC2)nc(-c2ccc(Cl)cc2Cl)n1-c1ccc(Cl)cc1 (single isomer, unassigned; (+)) [listing 2 of 2 here] | – | 12.9 | – | Ki (Cannabinoid receptor 2; cho): > 1000 nM
CCc1c(C(=O)NN2CCCCC2)nc(-c2ccc(Cl)cc2Cl)n1-c1ccc(Cl)cc1 | – | – | 31 | –
